Experimental findings from ChEMBL document CHEMBL1955809, “Discovery of GS-9256: a novel phosphinic acid derived inhibitor of the hepatitis C virus NS3/4A protease with potent clinical activity” (Bioorg Med Chem Lett, 2012) are described below.

In data set [1] the test system is Hepatitis C virus. Briefly: Inhibition of HCV1b NS3/4A protease. Set-up: species or system Hepatitis C virus subtype 1b. The following applies: Hepatitis C virus.
Data set [2] concerns Hepatitis C virus. Briefly: Antiviral activity against HCV genotype 1b infected in human Huh cells expressing luc gene by replicon assay. Type of data set: functional, organism-based, Hepacivirus hominis.
Data set [3] is described as follows: Permeability from apical to basolateral side in human Caco2 cells. The following applies: Caco-2, read-out: permeability. It counts as ADME, cell-based. (Caco-2 cells form a polarised layer with tight junctions and transporters.)
The nature of data set [4]: Permeability from basolateral to apical side in human Caco2 cells. Conditions: Caco-2, read-out: permeability. It counts as ADME, cell-based.
A short description of data set [5]: Drug excretion in iv dosed bile-cannulated rat bile assessed as parent compound level after 4 hrs. Type of data set: ADME, organism-based. Conditions: read-out: Ae.
Data set [6] can be described thus: Half life in dog at 1 mg/kg, iv. It counts as ADME, organism-based, Canis lupus familiaris. More on the design: dose 1 mg/kg, route intravenous. The following applies: in vivo.
Another data set deals with Canis familiaris. The data set can be described thus: AUC in dog at 1 mg/kg, iv and 4 mg/kg, po. Conditions: in vivo. It counts as ADME, organism-based, Canis lupus familiaris, Plasma.
Data set [7] can be described thus: Clearance in dog at 1 mg/kg, iv and 4 mg/kg, po. Type of data set: ADME, organism-based, Canis lupus familiaris. The following applies: in vivo.
The nature of data set [8]: Volume of distribution at steady state in dog at 1 mg/kg, iv and 4 mg/kg, po. It counts as ADME, organism-based, Canis lupus familiaris. The following applies: in vivo, read-out: Vdss.
Data set [9] is described as follows: Oral bioavailability in dog at 4 mg/kg. It counts as ADME, organism-based, Canis lupus familiaris. The following applies: in vivo.
Data set [10] can be described thus: Dissociation constant, pKa of the compound. Type of data set: physicochemical.

On to `C=C[C@@H]1C[C@]1(NC(=O)[C@@H]1C[C@@H](Oc2cc(-c3csc(NC(C)C)n3)nc3cc(OC)ccc23)CN1C(=O)[C@@H](NC(=O)OC1CCCC1)C(C)(C)C)P(=O)(O)Cc1c(F)cccc1F`, for which, in the data set with Hepatitis C virus [1], the IC50 (commonly the concentration that inhibits the measured activity by half) came out at 0.004 µM. Besides, the EC50 – broadly, the concentration giving half of the maximal effect – with Hepatitis C virus [2] worked out at 0.074 µM. In addition, the Papp A→B in [3] came to 12.2 nm/s. The Papp B→A in data set [4] worked out at 106 nm/s. The dose excreted at 4 h in data set [5] was over 90%. Besides, in data set [6], the half-life – broadly, how long it takes for the measured level to halve – is 1.6 h. Also, in the data set on Canis familiaris, the AUC (in general, concentration integrated over time) was found to be 3.12 µM·h. Further, the clearance in data set [7] is 0.37 L/h/kg. Further, the Vd in [8] was 0.31 L/kg. In data set [9], the bioavailability (as a rule, dose-corrected exposure relative to a reference, in per cent) is 8%. In addition, the pKa (usually the pH at which an ionisable group is half protonated) in data set [10] turned out to be 2.7.
